Laboratory results taken from US20250332139A1, “PS[…] AND THEIR USE FOR TREATING […] AND NE[…] DISORDERS” (Transcend Therapeutics, Inc., priority 2021, published 2025).
Several values for one entry are separate records, joined by “and”; a condition that tells them apart may be missing. Equal values may be shown once. Marks after values point to notes of the source that are not given here.

Tests used:
rats = assay: Open field test (OFT); type: in vivo, rat; conditions: for time spent in the center of the open field: methylone single dose IP 30 min before test (5 or 15 mg/kg in b361; 5-30 mg/kg in b50)
Protocol: This behavioral assay, also widely used as an anxiety paradigm, capitalizes on a rodent's innate fear of brightly lit open spaces, which are assumed to induce fear or anxiety. Rodents spend more time hugging the walls of the open field during the test, and these effects correlate to underlying brain regions and mechanisms.
Method: Consecutive beam breaks and/or video-tracking of time spent in the center versus periphery of the open field are measured. Also measured are parameters such as distance traveled and ambulatory activity (horizontal and vertical) for the duration of the test session.
The open field test (OFT) capitalizes on a rodent's innate fear of open spaces to assess anxiety-like behavior. More time spent in the center of an open field reflects an anxiolytic (anti-anxiety) effect.
To investigate whether MBDB has an anti-anxiety (anxiolytic) effect, rats were dosed with MBDB (0.5-30 mg/kg, IP) or vehicle (saline) and 30-minutes later were tested in the open field for 30 minutes. This anxiety test capitalizes on a rodents' innate fear of wide-open spaces and propensity to hug the walls when placed into the open field. Therefore, a drug that increases the time spent in the center of the open field has anxiolytic activity and predicts utility for treating anxiety in humans.

[1] = test system: patients with PTSD or MDD; healthy subjects; assay: Methylone case series (outpatient, CGI-S/CGI-I); type: in vivo, human
Protocol: CGI-S scale was also evaluated in a subset of patients from Cohort 2 post-treatment. Cohort 2 was evaluated for any observed or reported safety events following a single dosing session.
Clinical Global Impressions (CGI) scale includes 2 components: CGI-S(“severity”) and CGI-I (“improvement”).
No protected health information was disclosed, and no consent was obtained from patients for use of their archival data. Case narratives were systematically compiled from data collected as part of routine clinical work. Diagnoses were confirmed by an experienced clinician using semi-structured interviews. Baseline symptom severity was evaluated using the Clinical Global Impressions Scale-Severity (CGI-S). Symptom improvement was evaluated using the Clinical Global Impressions Scale-Improvement (CGI-I) following dosing. […] Because these case narratives were examined retrospectively from routine clinical care records, and not gathered prospectively in a research study, more specific validated rating scales for assessing PTSD symptoms were not available. Additionally, follow-up varied, with the length of follow-up ranging from one week (Case 2) to 15 years (Case 16).

C57BL/6J mice = assay: Head-twitch response (HTR) test; type: in vivo, mouse; conditions: i.p., HTR measured for 10 minutes, any dose tested
Protocol: Head twitch response (HTR) was evaluated using C57BL/6J mice (ages 7-10 weeks). Mice were ear tagged at least three days after arrival to the animal facility and allowed to rest for at least three days before behavioral testing. Small magnets (SuperMagnetMan-N45 magnet 3 mm diameter, 0.5 mm thickness) were glued to ear tags (Stoelting-La Pias Aluminum Ear Tags) at least two days before mice were ear tagged. The experimental setup was adapted from Gonzales-Maeso (de la Fuente Revenga et al., 2019) and Kwan (Jefferson et al., 2022; Savalia et al., 2021), including experimental apparatus and MATLAB code for analysis.
Doses were randomly assigned, and age-matched controls were injected with vehicle and randomly interspersed with drug conditions. At least three animals per sex were used for each drug dose and condition. If animals were used in multiple HTR experiments, experimental sessions took place at least one week apart. Two animals were run at a time. Immediately after i.p. injection of psychedelic or entactogen drug, animals were placed in separate plastic boxes within a larger chamber (Home Depot-28 in. W×32 in. H x 21.5 in. D), and HTR was measured for 10 minutes. A small lamp was placed in the back of the larger chamber, and a high-speed camera (Basler-Aca 1920-155 μm) was suspended from the ceiling to record video of the animals in the plastic boxes. […]

168 GPCRs [2] = target: 168 GPCRs (Homo sapiens, UniProt O95838); assay: β-arrestin GPCR screen (PathHunter/GPCRmax), agonist mode; type: cell-based; set-up: host or cells: PathHunter cell lines; conditions: GPCR GLP2R; Agonist mode; 10 uM
Protocol: (§1) For agonist determination, cells were incubated with sample to induce response. […] Vehicle concentration was 1%.

168 GPCRs [3] = target: 168 GPCRs (Homo sapiens, UniProt P32249); assay: as above; type: cell-based; set-up: host or cells: PathHunter cell lines; conditions: GPCR EBI2; Agonist mode; 10 uM
Protocol: as §1

168 GPCRs [4] = target: 168 GPCRs (Homo sapiens, UniProt Q8NFJ6); assay: as above; type: cell-based; set-up: host or cells: PathHunter cell lines; conditions: PROKR2; Agonist; 1 uM
Protocol: as §1

168 GPCRs [5] = target: 168 GPCRs (Homo sapiens, UniProt Q969F8); assay: as above; type: cell-based; set-up: host or cells: PathHunter cell lines; conditions: KISS1R; Agonist; 1 uM
Protocol: as §1

168 GPCRs [6] = target: 168 GPCRs (Homo sapiens, UniProt P30988); assay: β-arrestin GPCR screen (PathHunter/GPCRmax), antagonist mode; conditions: CALCR-RAMP3, Antagonist
168 GPCRs [7] = target: 168 GPCRs (Homo sapiens, UniProt P47872); assay: as above; conditions: SCTR; Antagonist; 1 uM
168 GPCRs [8] = target: 168 GPCRs (Homo sapiens, UniProt P48039); assay: as above; conditions: GPCR MTNR1A; Antagonist mode; 10 uM
168 GPCRs [9] = target: 168 GPCRs (Homo sapiens, UniProt Q15077); assay: as above; conditions: P2RY6; Antagonist; 1 uM
168 GPCRs [10] = target: 168 GPCRs (Homo sapiens, UniProt Q9HBW0); assay: as above; conditions: EDG4; Antagonist; 1 uM
168 GPCRs [11] = target: 168 GPCRs (Homo sapiens, UniProt Q9UBY5); assay: as above; conditions: EDG7; Antagonist; 1 uM
Sequence of 168 GPCRs (Homo sapiens, UniProt Q9UBY5) (Q9UBY5 whole entry): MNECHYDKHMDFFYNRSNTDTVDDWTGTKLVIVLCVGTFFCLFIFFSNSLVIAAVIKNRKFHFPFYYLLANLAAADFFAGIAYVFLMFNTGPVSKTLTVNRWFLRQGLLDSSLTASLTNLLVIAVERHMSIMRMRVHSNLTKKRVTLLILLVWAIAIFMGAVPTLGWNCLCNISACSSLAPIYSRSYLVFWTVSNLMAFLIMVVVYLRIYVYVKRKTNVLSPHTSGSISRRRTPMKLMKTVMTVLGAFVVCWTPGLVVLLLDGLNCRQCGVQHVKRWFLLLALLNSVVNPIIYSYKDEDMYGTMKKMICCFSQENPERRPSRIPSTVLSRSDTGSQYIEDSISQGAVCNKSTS

Sequence of 168 GPCRs (Homo sapiens, UniProt P30988) (P30988 25-474): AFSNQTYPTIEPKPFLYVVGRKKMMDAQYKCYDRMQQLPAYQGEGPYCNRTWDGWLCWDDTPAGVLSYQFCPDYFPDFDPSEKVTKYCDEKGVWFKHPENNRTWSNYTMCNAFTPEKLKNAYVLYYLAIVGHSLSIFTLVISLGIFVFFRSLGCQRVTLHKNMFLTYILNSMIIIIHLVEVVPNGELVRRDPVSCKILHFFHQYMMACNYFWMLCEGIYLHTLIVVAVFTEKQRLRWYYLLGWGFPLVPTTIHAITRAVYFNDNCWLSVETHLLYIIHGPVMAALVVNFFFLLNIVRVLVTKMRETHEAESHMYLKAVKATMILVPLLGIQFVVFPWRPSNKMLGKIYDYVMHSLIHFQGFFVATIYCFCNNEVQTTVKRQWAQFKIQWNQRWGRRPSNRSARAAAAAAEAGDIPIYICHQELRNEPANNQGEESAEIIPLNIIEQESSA
Sequence of 168 GPCRs (Homo sapiens, UniProt Q9HBW0) (Q9HBW0 whole entry): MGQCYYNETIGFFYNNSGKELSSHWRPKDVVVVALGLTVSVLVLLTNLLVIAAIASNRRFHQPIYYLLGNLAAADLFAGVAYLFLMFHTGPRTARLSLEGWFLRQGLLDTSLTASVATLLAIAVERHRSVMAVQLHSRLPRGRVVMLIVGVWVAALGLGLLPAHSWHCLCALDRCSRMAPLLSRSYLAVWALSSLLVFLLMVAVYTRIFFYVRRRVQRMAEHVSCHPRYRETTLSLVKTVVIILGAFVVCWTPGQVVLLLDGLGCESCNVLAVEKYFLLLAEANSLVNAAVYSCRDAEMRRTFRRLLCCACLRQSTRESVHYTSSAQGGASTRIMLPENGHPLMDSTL
Sequence of 168 GPCRs (Homo sapiens, UniProt P32249) (P32249 whole entry): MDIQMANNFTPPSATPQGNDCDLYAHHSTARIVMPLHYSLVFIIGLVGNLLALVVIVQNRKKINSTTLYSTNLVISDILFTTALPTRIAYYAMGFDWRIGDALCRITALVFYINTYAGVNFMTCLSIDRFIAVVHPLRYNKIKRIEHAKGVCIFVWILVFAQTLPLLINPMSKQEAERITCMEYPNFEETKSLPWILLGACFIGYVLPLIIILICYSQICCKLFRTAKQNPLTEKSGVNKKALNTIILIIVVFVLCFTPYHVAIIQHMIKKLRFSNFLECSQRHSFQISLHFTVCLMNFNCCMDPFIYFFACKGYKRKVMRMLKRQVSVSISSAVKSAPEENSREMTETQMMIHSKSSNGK
Sequence of 168 GPCRs (Homo sapiens, UniProt P48039) (P48039 whole entry): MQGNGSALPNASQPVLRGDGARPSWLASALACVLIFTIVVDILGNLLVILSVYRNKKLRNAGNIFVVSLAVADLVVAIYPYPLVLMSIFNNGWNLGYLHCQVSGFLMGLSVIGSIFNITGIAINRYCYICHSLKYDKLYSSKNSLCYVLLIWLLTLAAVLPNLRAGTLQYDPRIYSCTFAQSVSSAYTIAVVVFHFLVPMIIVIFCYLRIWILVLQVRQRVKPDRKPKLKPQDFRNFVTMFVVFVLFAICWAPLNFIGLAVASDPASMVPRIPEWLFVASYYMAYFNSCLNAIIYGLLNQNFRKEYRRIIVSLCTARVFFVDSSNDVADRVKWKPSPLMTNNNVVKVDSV
Sequence of 168 GPCRs (Homo sapiens, UniProt Q8NFJ6) (Q8NFJ6 whole entry): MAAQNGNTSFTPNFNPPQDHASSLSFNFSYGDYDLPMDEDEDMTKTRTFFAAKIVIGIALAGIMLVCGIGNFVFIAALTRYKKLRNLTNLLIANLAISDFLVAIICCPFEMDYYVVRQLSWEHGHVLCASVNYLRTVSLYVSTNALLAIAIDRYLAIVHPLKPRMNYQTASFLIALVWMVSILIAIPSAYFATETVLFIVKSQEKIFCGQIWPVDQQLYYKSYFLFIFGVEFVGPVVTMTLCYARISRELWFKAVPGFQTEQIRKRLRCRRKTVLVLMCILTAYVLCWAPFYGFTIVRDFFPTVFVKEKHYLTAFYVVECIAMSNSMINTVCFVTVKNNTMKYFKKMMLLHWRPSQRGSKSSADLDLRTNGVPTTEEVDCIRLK
Sequence of 168 GPCRs (Homo sapiens, UniProt P47872) (P47872 23-440): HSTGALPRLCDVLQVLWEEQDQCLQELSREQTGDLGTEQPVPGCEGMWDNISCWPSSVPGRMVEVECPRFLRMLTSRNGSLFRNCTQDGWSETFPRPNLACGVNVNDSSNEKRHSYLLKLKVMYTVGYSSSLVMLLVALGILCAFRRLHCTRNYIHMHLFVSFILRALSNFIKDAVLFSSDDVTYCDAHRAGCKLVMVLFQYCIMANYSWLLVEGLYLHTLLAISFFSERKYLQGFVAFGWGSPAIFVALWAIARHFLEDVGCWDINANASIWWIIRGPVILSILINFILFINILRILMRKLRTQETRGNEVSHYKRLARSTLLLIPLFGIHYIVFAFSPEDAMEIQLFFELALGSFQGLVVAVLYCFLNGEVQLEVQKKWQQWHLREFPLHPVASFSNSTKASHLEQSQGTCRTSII
Sequence of 168 GPCRs (Homo sapiens, UniProt O95838) (O95838 whole entry): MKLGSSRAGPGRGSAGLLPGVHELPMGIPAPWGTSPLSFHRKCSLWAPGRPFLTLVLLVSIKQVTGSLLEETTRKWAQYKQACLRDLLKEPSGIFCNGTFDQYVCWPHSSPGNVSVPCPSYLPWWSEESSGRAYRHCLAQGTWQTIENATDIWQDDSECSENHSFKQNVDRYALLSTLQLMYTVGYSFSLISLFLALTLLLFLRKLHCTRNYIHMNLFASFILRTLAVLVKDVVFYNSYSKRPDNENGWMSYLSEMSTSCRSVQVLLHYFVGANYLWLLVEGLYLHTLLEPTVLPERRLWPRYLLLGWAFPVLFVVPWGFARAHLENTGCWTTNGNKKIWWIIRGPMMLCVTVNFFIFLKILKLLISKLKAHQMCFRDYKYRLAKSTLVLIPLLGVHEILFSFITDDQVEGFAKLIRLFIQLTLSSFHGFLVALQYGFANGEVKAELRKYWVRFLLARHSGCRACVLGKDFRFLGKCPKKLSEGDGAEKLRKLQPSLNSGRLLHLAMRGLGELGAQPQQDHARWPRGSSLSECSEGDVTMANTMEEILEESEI
Sequence of 168 GPCRs (Homo sapiens, UniProt Q969F8) (Q969F8 whole entry): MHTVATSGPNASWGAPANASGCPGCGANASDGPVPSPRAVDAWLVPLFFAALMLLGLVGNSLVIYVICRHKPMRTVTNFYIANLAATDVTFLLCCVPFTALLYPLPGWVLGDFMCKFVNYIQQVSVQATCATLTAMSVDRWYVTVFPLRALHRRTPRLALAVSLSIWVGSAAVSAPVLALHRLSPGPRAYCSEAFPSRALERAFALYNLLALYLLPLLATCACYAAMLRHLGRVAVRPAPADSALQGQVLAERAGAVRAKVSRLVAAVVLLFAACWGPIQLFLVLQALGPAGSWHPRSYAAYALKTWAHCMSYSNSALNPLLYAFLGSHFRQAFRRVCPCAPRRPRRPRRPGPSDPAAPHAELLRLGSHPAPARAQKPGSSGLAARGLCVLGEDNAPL
Sequence of 168 GPCRs (Homo sapiens, UniProt Q15077) (Q15077 whole entry): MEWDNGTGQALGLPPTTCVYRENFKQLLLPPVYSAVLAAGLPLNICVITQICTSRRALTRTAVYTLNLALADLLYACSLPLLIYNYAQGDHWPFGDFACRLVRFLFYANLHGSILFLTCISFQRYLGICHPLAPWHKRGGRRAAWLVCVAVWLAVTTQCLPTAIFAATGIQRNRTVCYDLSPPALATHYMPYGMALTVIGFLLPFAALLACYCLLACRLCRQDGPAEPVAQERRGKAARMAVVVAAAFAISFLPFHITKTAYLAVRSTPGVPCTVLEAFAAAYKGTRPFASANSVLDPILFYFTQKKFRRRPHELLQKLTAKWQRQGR

Structure (SMILES): CNC(C)C(=O)c1ccc2c(c1)OCO2 (stereo not shown) [methylone, 3,4-methylenedioxy-N-methylcathinone]
- locomotor activity in OFT (rats; methylone 15 or 30 mg/kg IP): significant increase in locomotor activity
- time spent in the center of the open field (rats): significantly increases the time spent in the center
- time spent in the center of the open field (rats; listed as Methylone): significantly increased center time
- adverse effects ([1]; Cohort 1, 4 healthy subjects, total dose 790-870 mg in one session): no adverse effects or after-effects were observed or reported
- patients with initial improvement at first methylone session ([1]; Cohort 2 (25 of 28 patients)): ~90%
- Number of cases with highest observed CGI-I 1 ([1]; Cohort 2, N = 28): 11*
- Number of cases with highest observed CGI-I 2 ([1]; Cohort 2, N = 28): 13
- Number of cases with highest observed CGI-I 3 ([1]; Cohort 2, N = 28): 4
- Number of cases with highest observed CGI-I 4 ([1]; Cohort 2, N = 28): 0
- Number of cases with highest observed CGI-I 5 ([1]; Cohort 2, N = 28): 0
- Number of cases with highest observed CGI-I 6 ([1]; Cohort 2, N = 28): 0
- Number of cases with highest observed CGI-I 7 ([1]; Cohort 2, N = 28): 0
- number of patients achieving a CGI-I of 1 or 2 ([1]; Example 5, 21 PTSD patients): 17 patients
- tolerability ([1]; Example 5, 21 PTSD patients, oral 100 to 1,020 mg): generally well tolerated
- Best CGI-S post-treatment ([1]; individual cases, Cohort 2): 1 and 4 and 2 and 3
- CGI-S max change from BL ([1]; individual cases, Cohort 2): −3 (4×) and −4
- head-twitch behaviors (C57BL/6J mice): no effect on head-twitch behaviors at any dose tested
- activity at 10 µM (168 GPCRs [2]): -1%
- activity at 10 µM (168 GPCRs [3]): -0.1%
- activity at 1 µM (168 GPCRs [4]): ~0%
- activity at 1 µM (168 GPCRs [5]): ~-5%
- activity at 1 µM (168 GPCRs [6]; 1 uM): ~-8%
- activity at 10 µM (168 GPCRs [6]; 10 uM): -3.3%
- activity at 1 µM (168 GPCRs [7]): ~6%
- activity at 10 µM (168 GPCRs [8]): ~7%
- activity at 1 µM (168 GPCRs [9]): ~8%
- activity at 1 µM (168 GPCRs [10]): ~-10%
- activity at 1 µM (168 GPCRs [11]): ~19%
